Holding throughout (type): biochemical
The target in one assay is stromelysin (Homo sapiens, UniProt P08254). Kind of assay: Assay of Stromelysin Inhibition Activity (fluorogenic substrate hydrolysis). The note with it: for IC50: 60 minutes incubation; for inhibition at 10 µM: read-out: percent inhibition of stromelysin. The method, then: (§1) Stromelysin was first activated by trypsin. This was done by preparing a reaction mixture in B-150 (B-150 consists of 150 mM NaCl, 20 mM Tris at pH 7.8 and 0.02% sodium azide) containing a final concentration of 4 μg/mL trypsin, 1.48 μg/mL of stromelysin, and 3.15 mM CaCl2. The reaction was incubated for 30 minutes at 37° C. and then quenched by adding soybean trypsin inhibitor to a final concentration of 43.6 μg/mL. ZnCl2 was added to the reaction mixture for a total concentration of 0.24 μM.
(§2) Following preparation of the solution of activated stromelysin, assay solutions were prepared for each inhibitor being tested. A control was also prepared. First, […] of activated stromelysin (about 45 μL from the solution of activated stromelysin) were aliquotted per assay tube. A 2.5 mM solution in 100% dimethyl sulfoxide (DMSO) was prepared for each inhibitor being tested and 1 μL from each inhibitor solution was added to one of the assay tubes. In addition, 1 μL of 100% DMSO was added to the control assay tube. All assay tubes were then pre-incubated for 5 minutes.
(§3) 5 μL of a previously prepared 50 μM solution of substrate in 15% DMSO were added to each assay tube. The substrate was a methoxycumarin developed by Knight et al. FEBS Lett. 296:263-66 (1992). The tubes were then incubated for 60 minutes, at which time the reaction was stopped with the addition of 750 μL of 0.1M NaAc pH 4.0 buffer.
(§4) Substrate hydrolysis was assessed by fluorescence using a slit width of 10:10, excitation at 328 nm and emission at 393 nm. The results of these assays are listed in Table I as percent inhibition at 10 μM of the bile acid provided compound tested or as the IC50.

In the next assay the test system is collagenase. Kind of assay: Assay of Collagenase Inhibition Activity. Conditions: at 10 μM of compound; 45 minutes at 37° C. Here is the method: as §1, §2, §3, §4
The assay procedure for collagenase was the same as described in Example 13 for stromelysin except that the trypsin activation was performed for 45 minutes. In addition, the incubation of the assay tubes at 37° C. was only for 45 minutes, and the final enzyme concentration is 6 nm. The results of these assays are provided in Table I as percent inhibition at 10 μM of the compound tested.

In the assay “gelatinase (72 (Kd))” the target is T1, gelatinase (72 (Kd) (Homo sapiens, UniProt P08253)).
T1 sequence (P08253 110-660): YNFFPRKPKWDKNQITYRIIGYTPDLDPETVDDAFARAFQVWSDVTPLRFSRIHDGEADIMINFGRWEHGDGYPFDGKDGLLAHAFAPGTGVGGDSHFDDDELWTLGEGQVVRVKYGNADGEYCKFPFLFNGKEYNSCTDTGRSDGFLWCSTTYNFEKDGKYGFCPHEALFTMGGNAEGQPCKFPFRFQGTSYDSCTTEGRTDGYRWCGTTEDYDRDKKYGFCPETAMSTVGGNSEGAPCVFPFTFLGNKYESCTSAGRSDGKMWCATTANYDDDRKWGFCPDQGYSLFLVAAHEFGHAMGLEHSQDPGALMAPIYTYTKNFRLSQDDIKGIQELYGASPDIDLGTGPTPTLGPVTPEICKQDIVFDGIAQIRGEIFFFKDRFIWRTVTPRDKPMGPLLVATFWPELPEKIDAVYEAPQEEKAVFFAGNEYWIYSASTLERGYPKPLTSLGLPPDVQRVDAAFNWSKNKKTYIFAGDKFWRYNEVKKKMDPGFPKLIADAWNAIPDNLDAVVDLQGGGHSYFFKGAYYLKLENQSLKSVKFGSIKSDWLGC
Kind of assay: Assay of Gelatinase Inhibition Activity (72 Kd gelatinase). Conditions: 60 minutes at 37° C.; for inhibition at 10 µM: at 10 μM of compound, read-out: percent inhibition of gelatinase. The method, then:
as §1, §2, §3, §4
The assay procedure for gelatinase (72 (Kd) was the same as described in Example 13 for stromelysin except that the trypsin activation was performed for 60 minutes. In addition, the incubation of the assay tubes at 37° C. was for 60 minutes, and the final enzyme concentration was 3 nm. The results of these assays are listed in Table I as percent inhibition at 10 μM of the compound tested.

The structures appear in SMILES notation. Where two headings read alike, the source gives them in different places.

stromelysin, sequence (P08254 100-477): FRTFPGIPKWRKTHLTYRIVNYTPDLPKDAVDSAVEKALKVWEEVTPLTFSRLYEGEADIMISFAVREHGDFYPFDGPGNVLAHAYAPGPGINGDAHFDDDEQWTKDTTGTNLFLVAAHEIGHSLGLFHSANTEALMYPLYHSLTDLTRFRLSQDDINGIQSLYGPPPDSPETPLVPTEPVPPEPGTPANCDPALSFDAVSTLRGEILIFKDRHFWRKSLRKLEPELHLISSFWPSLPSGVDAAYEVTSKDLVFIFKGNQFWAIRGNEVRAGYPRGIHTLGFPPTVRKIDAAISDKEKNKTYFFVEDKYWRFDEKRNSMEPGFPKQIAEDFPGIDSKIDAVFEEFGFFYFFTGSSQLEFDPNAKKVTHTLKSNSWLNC

As usually defined, the IC50 is the concentration that inhibits the measured activity by half. For the compound `C[C@H](CCC(=O)O)[C@H]1CC[C@H]2[C@@H]3CC[C@@H]4C[C@H](O)CC[C@]4(C)[C@H]3CC[C@]12C` [Compound 1, Lithocholic acid, reference compound], the IC50 against stromelysin amounted to 38 µM. Besides, the “percent inhibition of collagenase” value in the assay with collagenase is given as 27%.
What is called inhibition is the percentage by which the read-out fell short of the control. On to `C[C@H](CCC(=O)NCCC[N+](C)(C)CCCS(=O)(=O)[O-])[C@H]1CC[C@H]2[C@@H]3[C@H](O)C[C@@H]4C[C@H](O)CC[C@]4(C)[C@H]3C[C@H](O)[C@]12C` [Compound 8, 3-[(3-cholamidopropyl)dimethylammonio)-1-propanesulfonate, reference compound], for which, at stromelysin, the inhibition at 10 µM was 26%. For the same compound, in the assay on collagenase, the “percent inhibition of collagenase” value was 22%.
Regarding `CC(C)C[C@H](NC(=O)CC[C@@H](C)[C@H]1CC[C@H]2[C@@H]3CC[C@@H]4C[C@H](O)CC[C@]4(C)[C@H]3CC[C@]12C)C(=O)NO` [Compound 9, Lithocholyl-(L)-Leucine Hydroxamic Acid], the values for the IC50 against stromelysin and at gelatinase (72 (Kd)) were 1 µM and 0.3 µM, respectively. Further, in the assay with collagenase, the “percent inhibition of collagenase” value is recorded as 27%.
In turn, `CC(C)C[C@H](NC(=O)CC[C@@H](C)[C@H]1CC[C@H]2[C@@H]3[C@H](O)C[C@@H]4C[C@H](O)CC[C@]4(C)[C@H]3CC[C@]12C)C(=O)NO` [Compound 10, Chenodeoxycholyl-(L)-Leucine Hydroxamic Acid] showed an IC50 against stromelysin of 5 µM. Further, the “percent inhibition of collagenase” value in the assay with collagenase was determined as 8%. Besides, the inhibition at 10 µM on gelatinase (72 (Kd)) stood at 27%.
Regarding `C[C@H](CCC(=O)NOCc1ccccc1)[C@H]1CC[C@H]2[C@@H]3[C@H](O)C[C@@H]4C[C@H](O)CC[C@]4(C)[C@H]3CC[C@]12C` [Compound 12, Chenodeoxycholyl-O-Benzylhyroxamate], at stromelysin (at 10 μM of compound), the inhibition at 10 µM worked out at 5%. For the same compound, the “percent inhibition of collagenase” value with collagenase is reported as 21%.
Regarding `C[C@H](CCC(=O)NO)[C@H]1CC[C@H]2[C@@H]3CC[C@@H]4C[C@H](O)CC[C@]4(C)[C@H]3CC[C@]12C` [Compound 13, Lithocholylhydroxamic Acid], the inhibition at 10 µM on stromelysin (at 10 μM of compound) amounted to 56%. Also, in the assay with collagenase, the “percent inhibition of collagenase” value is reported as 35%. The compound also displayed an IC50 against gelatinase (72 (Kd)) of 8 µM.
As for `C[C@H](CCC(=O)N[C@@H](Cc1ccccc1)C(=O)NO)[C@H]1CC[C@H]2[C@@H]3CC[C@@H]4C[C@H](O)CC[C@]4(C)[C@H]3CC[C@]12C` [Compound 15, Lithocholyl-(L)-Phenylalanine Hydroxamic Acid], the inhibition at 10 µM at stromelysin (at 10 μM of compound) was 85%; at gelatinase (72 (Kd)), 47%. Further, in the assay on collagenase, the “percent inhibition of collagenase” value came out at 58%.
On the same counts, the results for `C[C@H](CCC(=O)N[C@@H](Cc1ccccc1)C(=O)NO)[C@H]1CC[C@H]2[C@@H]3[C@H](O)C[C@@H]4C[C@H](O)CC[C@]4(C)[C@H]3CC[C@]12C` [Compound 16, Chenodeoxycholyl-(L)-Phenylalanine Hydroxamic Acid] are 80%, 23% and 38%.
For the compound `CCOC(=O)[C@H](CS)NC(=O)[C@H](Cc1ccccc1)NC(=O)CC[C@@H](C)[C@H]1CC[C@H]2[C@@H]3CC[C@@H]4C[C@H](O)CC[C@]4(C)[C@H]3CC[C@]12C` [Compound 19, Lithocholyl-(L)-Phenylalanyl-(L)-Cysteine Ethyl Ester], the IC50 against stromelysin was 2 µM. For the same compound, in the assay on collagenase, the “percent inhibition of collagenase” value is on record as 33%. Also, at gelatinase (72 (Kd)), the inhibition at 10 µM is 47%.
With `C[C@H](CCC(=O)N[C@@H](Cc1ccccc1)C(=O)NC1CCSC1=O)[C@H]1CC[C@H]2[C@@H]3CC[C@@H]4C[C@H](O)CC[C@]4(C)[C@H]3CC[C@]12C` (stereo partly drawn) [Compound 20, Lithocholyl-Phenylalanylhomocysteine Thiolactone], the inhibition at 10 µM on stromelysin (at 10 μM of compound) is 57%; on gelatinase (72 (Kd)) it was 30%. Moreover, the “percent inhibition of collagenase” value in the assay on collagenase is 57%.

Source of the values: US5646316A, “Bile acid inhibitors of metalloproteinase enzymes” (OsteoArthritis Sciences, Inc., priority 1995, dated 1997).
